Measured values reported in ChEMBL document CHEMBL4184254, “Novel SIRT1 activator MHY2233 improves glucose tolerance and reduces hepatic lipid accumulation in db/db mice” (Bioorg Med Chem Lett, 2018).
The source made the active and inactive calls. The calls are words filed in the database; no cut-off is given here.

Key:
[1] = target: T1, NAD-dependent protein deacetylase sirtuin-1 (Homo sapiens) (UniProt Q96EB6); assay: Activation of SIRT1 (unknown origin) assessed as increase in NAD-dependent deacetylase activity using fluoro-substrate peptide by fluorometric assay relative to resveratrol
T1 sequence (whole entry): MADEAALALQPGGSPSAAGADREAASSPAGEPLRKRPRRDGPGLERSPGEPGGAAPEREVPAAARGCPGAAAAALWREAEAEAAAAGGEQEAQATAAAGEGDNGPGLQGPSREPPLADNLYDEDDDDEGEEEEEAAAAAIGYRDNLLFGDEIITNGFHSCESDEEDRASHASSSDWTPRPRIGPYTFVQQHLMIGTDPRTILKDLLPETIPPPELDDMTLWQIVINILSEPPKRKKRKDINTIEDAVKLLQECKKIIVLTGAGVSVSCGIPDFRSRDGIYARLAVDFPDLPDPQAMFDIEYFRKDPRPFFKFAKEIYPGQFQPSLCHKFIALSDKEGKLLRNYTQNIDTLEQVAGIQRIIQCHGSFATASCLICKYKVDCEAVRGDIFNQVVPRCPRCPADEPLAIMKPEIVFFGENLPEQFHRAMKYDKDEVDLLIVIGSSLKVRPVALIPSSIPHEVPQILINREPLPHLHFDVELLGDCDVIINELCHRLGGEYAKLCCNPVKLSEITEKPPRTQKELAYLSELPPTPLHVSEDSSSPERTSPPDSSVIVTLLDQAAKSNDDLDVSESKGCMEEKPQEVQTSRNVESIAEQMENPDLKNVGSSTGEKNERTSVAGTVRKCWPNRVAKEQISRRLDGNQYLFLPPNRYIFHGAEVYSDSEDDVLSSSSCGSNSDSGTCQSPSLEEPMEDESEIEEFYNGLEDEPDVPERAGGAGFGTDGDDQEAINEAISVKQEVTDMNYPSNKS

Mus musculus [2] = assay: Activation of SIRT1 in C57BLKS/J-db/db mouse assessed as reduction in p53 acetylation at 5 mg/kg/day dosed via oral gavage for 4 weeks by Western blot method; format: functional, organism-based
Mus musculus [3] = assay: Effect on body weight in C57BLKS/J-db/db mouse at 5 mg/kg/day dosed via oral gavage for 30 days; format: ADME, organism-based; details: in vivo, 720 h
Mus musculus [4] = assay: Effect on food intake in C57BLKS/J-db/db mouse at 5 mg/kg/day dosed via oral gavage for 30 days; format: ADME, organism-based; details: in vivo, 720 h
Mus musculus [5] = assay: Reduction in serum triglyceride level in C57BLKS/J-db/db mouse at 5 mg/kg/day dosed via oral gavage for 30 days by colorimetric assay; format: functional, organism-based
Mus musculus [6] = assay: Reduction in serum total cholesterol level in C57BLKS/J-db/db mouse at 5 mg/kg/day dosed via oral gavage for 30 days by colorimetric assay; format: functional, organism-based
Mus musculus [7] = assay: Reduction in serum NEFA level in C57BLKS/J-db/db mouse at 5 mg/kg/day dosed via oral gavage for 30 days by colorimetric assay; format: functional, organism-based
Mus musculus [8] = assay: Improvement in insulin resistance in C57BLKS/J-db/db mouse assessed as change in glucose level at 5 mg/kg/day dosed via oral gavage for 3 weeks by oral glucose tolerance test; format: functional, organism-based
Mus musculus [9] = assay: Improvement in insulin resistance in C57BLKS/J-db/db mouse assessed as reduction in fasting serum glucose level at 5 mg/kg/day dosed via oral gavage for 3 weeks by oral glucose tolerance test; format: functional, organism-based
Mus musculus [10] = assay: Improvement in insulin resistance in C57BLKS/J-db/db mouse assessed as reduction in serum insulin level at 5 mg/kg/day dosed via oral gavage for 3 weeks by oral glucose tolerance test; format: functional, organism-based
Mus musculus [11] = assay: Improvement in insulin resistance in C57BLKS/J-db/db mouse assessed as restoration of liver IRS1 Tyr465 phosphorylation at 5 mg/kg/day dosed via oral gavage for 3 weeks during oral glucose tolerance test by Western blot; format: functional, organism-based
Mus musculus [12] = assay: Improvement in insulin resistance in C57BLKS/J-db/db mouse assessed as restoration of liver Akt Ser473 phosphorylation at 5 mg/kg/day dosed via oral gavage for 3 weeks during oral glucose tolerance test by Western blot; format: functional, organism-based
Mus musculus [13] = assay: Suppression of hepatic steatosis in C57BLKS/J-db/db mouse assessed as reduction in liver lipid droplets at 5 mg/kg/day dosed via oral gavage for 4 weeks by hematoxylin-eosin staining based assay; format: functional, organism-based
Mus musculus [14] = assay: Reduction in hepatic triglyceride level in C57BLKS/J-db/db mouse at 5 mg/kg/day dosed via oral gavage for 4 weeks by colorimetric assay; format: functional, organism-based
Mus musculus [15] = assay: Reduction in hepatic SREBP-1c mRNA expression in C57BLKS/J-db/db mouse at 5 mg/kg/day dosed via oral gavage for 4 weeks by qRT-PCR method; format: functional, organism-based
Mus musculus [16] = assay: Reduction in hepatic SREBP-1a mRNA expression in C57BLKS/J-db/db mouse at 5 mg/kg/day dosed via oral gavage for 4 weeks by qRT-PCR method; format: functional, organism-based
Mus musculus [17] = assay: Reduction in hepatic FASN mRNA expression in C57BLKS/J-db/db mouse at 5 mg/kg/day dosed via oral gavage for 4 weeks by qRT-PCR method; format: functional, organism-based
Mus musculus [18] = assay: Reduction in hepatic ACC mRNA expression in C57BLKS/J-db/db mouse at 5 mg/kg/day dosed via oral gavage for 4 weeks by qRT-PCR method; format: functional, organism-based
Mus musculus [19] = assay: Effect on beta-oxidation related gene expression in C57BLKS/J-db/db mouse assessed as CPT1 mRNA expression at 5 mg/kg/day dosed via oral gavage for 4 weeks by qRT-PCR method; format: functional, organism-based
Mus musculus [20] = assay: Effect on beta-oxidation related gene expression in C57BLKS/J-db/db mouse assessed as ACOX1 mRNA expression at 5 mg/kg/day dosed via oral gavage for 4 weeks by qRT-PCR method; format: functional, organism-based

fold change (FC) [1]: 1.5
SMILES: O=C(Nc1ccccc1-c1nc2cc(CN3CCN(C4CCCCC4)CC3)ccc2o1)c1ccc2ccccc2c1
Activity (Mus musculus [2]): Active
Activity (Mus musculus [3]): Non-Toxic
Activity (Mus musculus [4]): Non-Toxic
Activity (Mus musculus [5]): Active
Activity (Mus musculus [6]): Active
Activity (Mus musculus [7]): Active
Activity (Mus musculus [8]): Active
Activity (Mus musculus [9]): Active
Activity (Mus musculus [10]): Active
Activity (Mus musculus [11]): Active
Activity (Mus musculus [12]): Active
Activity (Mus musculus [13]): Active
Activity (Mus musculus [14]): Active
Activity (Mus musculus [15]): Active
Activity (Mus musculus [16]): Active
Activity (Mus musculus [17]): Active
Activity (Mus musculus [18]): Active
Activity (Mus musculus [19]): inactive
Activity (Mus musculus [20]): inactive
